From patent US8604200B2, “Diaza-spiro-{4,4}-nonane derivatives as neurokinin (NK1) antagonists” (Janssen Pharmaceutica N.V., priority 2005, dated 2013)

Tests used:
Type in all cases: cell-based
[1] = molecular target: NK1 (Homo sapiens, UniProt P25103); experiment: Signal transduction (ST), intracellular Ca++ FLIPR, NK1; settings: antagonist response, Ca++ transient peak, read-out: NK1 pIC50 (converted)
Experimental: This test evaluates in vitro functional NK1 antagonistic activity. For the measurements of intracellular Ca^++ concentrations the cells were grown on 96-well (black wall/transparent bottom) plates from Costar for 2 days until they reached confluence. The cells were loaded with 2 μM Fluo3 in DMEM containing 0.1% BSA and 2.5 mM probenecid for 1 h at 37° C. They were washed 3× with a Krebs buffer (140 mM NaCl, 1 mM MgCl2×6H2O, 5 mM KCl, 10 mM glucose, 5 mM HEPES; 1.25 mM CaCl2; pH 7.4) containing 2.5 mM probenecid and 0.1% BSA (Ca^++-buffer). The cells were preincubated with a concentration range of antagonists for 20 min at RT and Ca^++-signals after addition of the agonists were measured in a Fluorescence Inage Plate Reader (FLIPR from Molecular Devices, Crawley, England). The peak of the Ca^++-transient was considered as the relevant signal and the mean values of corresponding wells were analysed as described below. The sigmoidal dose response curves were analysed by computerised curve-fitting, using the GraphPad Program. The EC50-value of a compound is the effective dose showing 50% of maximal effect. For mean curves the response to the agonist with the highest potency was normalised to 100%. For antagonist responses the IC50-value was calculated using non-linear regression. The last column indicates—without being limited thereto—for which use the compounds might be most suitable.

[2] = molecular target: T1, NK2 (Homo sapiens, UniProt P21452); experiment: Signal transduction (ST), intracellular Ca++ FLIPR, NK2; settings: antagonist response, Ca++ transient peak, read-out: NK2 pIC50 (converted)
T1 sequence (P21452 1-398): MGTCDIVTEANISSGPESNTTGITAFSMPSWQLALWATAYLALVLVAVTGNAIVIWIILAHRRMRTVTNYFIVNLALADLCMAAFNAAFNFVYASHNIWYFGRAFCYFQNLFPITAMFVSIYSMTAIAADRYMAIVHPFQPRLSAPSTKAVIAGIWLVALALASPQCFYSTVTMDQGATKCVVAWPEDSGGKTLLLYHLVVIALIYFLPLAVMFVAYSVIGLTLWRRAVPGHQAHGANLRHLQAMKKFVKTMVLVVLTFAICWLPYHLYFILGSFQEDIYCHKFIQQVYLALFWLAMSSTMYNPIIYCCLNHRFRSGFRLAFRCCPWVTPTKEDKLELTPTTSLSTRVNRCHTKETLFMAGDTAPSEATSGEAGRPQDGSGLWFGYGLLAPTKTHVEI

[3] = molecular target: T2, NK3 (Homo sapiens, UniProt P29371); experiment: Signal transduction (ST), intracellular Ca++ FLIPR, NK3; settings: antagonist response, Ca++ transient peak, read-out: NK3 pIC50 (converted)
T2 sequence (P29371 1-465): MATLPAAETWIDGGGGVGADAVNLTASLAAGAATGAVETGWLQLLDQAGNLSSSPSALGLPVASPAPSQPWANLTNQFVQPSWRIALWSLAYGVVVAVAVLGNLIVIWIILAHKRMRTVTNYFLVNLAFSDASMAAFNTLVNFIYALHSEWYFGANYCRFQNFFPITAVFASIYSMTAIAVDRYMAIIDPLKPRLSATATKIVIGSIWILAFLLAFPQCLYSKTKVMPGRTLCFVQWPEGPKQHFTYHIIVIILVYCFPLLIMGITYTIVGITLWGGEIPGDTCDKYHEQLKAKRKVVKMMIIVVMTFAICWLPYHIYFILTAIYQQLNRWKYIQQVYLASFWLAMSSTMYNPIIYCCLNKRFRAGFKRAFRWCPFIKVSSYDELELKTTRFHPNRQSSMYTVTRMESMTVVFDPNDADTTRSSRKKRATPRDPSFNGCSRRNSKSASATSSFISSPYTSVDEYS

Chain of NK1 (P25103 whole entry): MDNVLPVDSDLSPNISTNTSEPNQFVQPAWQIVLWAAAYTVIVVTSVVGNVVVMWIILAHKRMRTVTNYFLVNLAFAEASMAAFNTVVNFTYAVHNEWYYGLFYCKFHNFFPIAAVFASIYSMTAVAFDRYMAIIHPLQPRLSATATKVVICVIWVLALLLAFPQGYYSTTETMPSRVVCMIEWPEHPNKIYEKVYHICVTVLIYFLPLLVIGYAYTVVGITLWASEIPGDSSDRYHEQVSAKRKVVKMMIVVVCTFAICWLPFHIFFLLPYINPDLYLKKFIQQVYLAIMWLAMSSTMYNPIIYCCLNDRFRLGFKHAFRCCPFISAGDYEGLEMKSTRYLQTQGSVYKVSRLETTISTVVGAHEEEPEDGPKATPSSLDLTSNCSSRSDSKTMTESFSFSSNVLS

## Cc1nnsc1C(=O)N1CCC2(CCN([C@H]3CCN(C(=O)c4cc(C(F)(F)F)cc(C(F)(F)F)c4)[C@H](Cc4ccccc4)C3)C2)C1 (stereo partly drawn) [Compound 2-8]
[1]
  IC50: 0.1 µM
[2]
  IC50: 6.31 µM
[3]
  IC50: 3.98 µM

## CC(C)(C)C(=O)N1CCC2(CCN([C@H]3CCN(C(=O)c4cc(C(F)(F)F)cc(C(F)(F)F)c4)[C@H](Cc4ccccc4)C3)C2)C1 (stereo partly drawn) [Compound 2-3]
[1]
  IC50: 0.0631 µM
[2]
  IC50: 3.16 µM
[3]
  IC50: 6.31 µM

## O=C(c1cc(C(F)(F)F)cc(C(F)(F)F)c1)N1CC[C@@H](N2CCC3(CCCN3C(=O)c3cnccn3)C2)C[C@H]1Cc1ccccc1 (stereo partly drawn) [Compound 1-12]
[1]
  IC50: 0.2 µM
[2]
  IC50: 3.98 µM
[3]
  IC50: > 10 µM

## O=C(c1cc(C(F)(F)F)cc(C(F)(F)F)c1)N1CC[C@@H](N2CCC3(CCCN3C(=O)c3cccs3)C2)C[C@H]1Cc1ccccc1 (stereo partly drawn) [Compound 1-9]
[1]
  IC50: 0.0501 µM
[2]
  IC50: 6.31 µM
[3]
  IC50: > 10 µM

## O=C(C1CC1)N1CCC2(CCN(C3CCN(C(=O)c4cc(C(F)(F)F)cc(C(F)(F)F)c4)C(Cc4ccccc4)C3)C2)C1 (stereo not drawn) [Compound 2-4]
[1]
  IC50: 0.1 µM
[2]
  IC50: 2.51 µM

## O=C(c1cc(C(F)(F)F)cc(C(F)(F)F)c1)N1CCC(N2CCC3(CCCN3C(=O)C3CC3)C2)CC1Cc1ccccc1 (stereo not drawn) [Compound 1-3]
[1]
  IC50: 0.251 µM
[2]
  IC50: 3.98 µM
[3]
  IC50: > 10 µM

## O=C(c1cc(C(F)(F)F)cc(C(F)(F)F)c1)N1CC[C@H](N2CCC3(CCCN3C(=O)c3ccccc3)C2)C[C@H]1Cc1ccccc1 (stereo partly drawn) [Compound 1-10]
[1]
  IC50: 0.2 µM
[2]
  IC50: 5.01 µM
[3]
  IC50: > 10 µM

## O=C(c1cnccn1)N1CCC2(CCN([C@H]3CCN(C(=O)c4cc(C(F)(F)F)cc(C(F)(F)F)c4)[C@H](Cc4ccccc4)C3)C2)C1 (stereo partly drawn) [Compound 2-10]
[1]
  IC50: 0.251 µM
[2]
  IC50: 5.01 µM
[3]
  IC50: > 10 µM

## O=C(c1cc(C(F)(F)F)cc(C(F)(F)F)c1)N1CCC(N2CCC3(CCCN3C(=O)C3CCOC3)C2)CC1Cc1ccccc1 (single isomer, unassigned) [Compound 1-5]
[1]
  IC50: 0.0501 µM
[2]
  IC50: 6.31 µM

## O=C(c1cccs1)N1CCC2(CCN([C@H]3CCN(C(=O)c4cc(C(F)(F)F)cc(C(F)(F)F)c4)[C@H](Cc4ccccc4)C3)C2)C1 (stereo partly drawn) [Compound 2-7]
[1]
  IC50: 0.158 µM
[2]
  IC50: 6.31 µM
[3]
  IC50: 2.51 µM

## O=C(c1cc(C(F)(F)F)cc(C(F)(F)F)c1)N1CC[C@@H](N2CCC3(CCCN3C(=O)c3ccoc3)C2)C[C@H]1Cc1ccccc1 (stereo partly drawn) [Compound 1-8]
[1]
  IC50: 0.1 µM
[2]
  IC50: 6.31 µM
[3]
  IC50: > 10 µM

## O=C(c1cc(C(F)(F)F)cc(C(F)(F)F)c1)N1CCC(N2CCC3(CCCN3C(=O)C3CCOC3)C2)CC1Cc1ccccc1 (single isomer, unassigned) [Compound 1-6]
[1]
  IC50: 0.0631 µM
[2]
  IC50: 1.58 µM
[3]
  IC50: > 10 µM

## O=C(c1ccoc1)N1CCC2(CCN([C@H]3CCN(C(=O)c4cc(C(F)(F)F)cc(C(F)(F)F)c4)[C@H](Cc4ccccc4)C3)C2)C1 (stereo partly drawn) [Compound 2-6]
[1]
  IC50: 0.0501 µM
[2]
  IC50: 5.01 µM
[3]
  IC50: 3.16 µM

## O=C(C1CCOC1)N1CCC2(CCN([C@H]3CCN(C(=O)c4cc(C(F)(F)F)cc(C(F)(F)F)c4)[C@H](Cc4ccccc4)C3)C2)C1 (stereo partly drawn) [Compound 2-5]
[1]
  IC50: 0.0398 µM
[2]
  IC50: 2.51 µM
[3]
  IC50: 2 µM

## O=C(c1cc(C(F)(F)F)cc(C(F)(F)F)c1)N1CC[C@@H](N2CCC3(CCCN3C(=O)c3ccccc3)C2)C[C@H]1Cc1ccccc1 (stereo partly drawn) [Compound 1-11]
[1]
  IC50: 0.158 µM
[3]
  IC50: > 10 µM

## O=C(c1ccccc1)N1CCC2(CCN([C@H]3CCN(C(=O)c4cc(C(F)(F)F)cc(C(F)(F)F)c4)[C@H](Cc4ccccc4)C3)C2)C1 (stereo partly drawn) [Compound 2-9]
[1]
  IC50: 0.126 µM
[2]
  IC50: 5.01 µM
[3]
  IC50: 3.98 µM

## O=C(c1cc(C(F)(F)F)cc(C(F)(F)F)c1)N1CC[C@H](N2CCC3(CCCN3C(=O)c3ccoc3)C2)C[C@H]1Cc1ccccc1 (stereo partly drawn) [Compound 1-7]
[1]
  IC50: 0.1 µM
[2]
  IC50: 3.16 µM
[3]
  IC50: > 10 µM

## O=C(c1cc(C(F)(F)F)cc(C(F)(F)F)c1)N1CCC(N2CCC3(CCCN3Cc3ccccc3)C2)CC1Cc1ccccc1 (stereo not drawn) [Compound 1-2]
[1]
  IC50: 0.631 µM
[2]
  IC50: > 10 µM
[3]
  IC50: > 10 µM
